How the values were obtained:
[1] = test system: TMD8 cells transfected with BTK T316A; conditions: 100 nM ibr 3 days, 10 μM BrdU 2 hrs
Procedure: (§1) FIGS. 3A-C. […] (A) Growth of TMD8 cells transfected with BTK T316A, C481S, and WT BTK constructs. The transfected cells were cultured with either 100 nM ibr or DMSO. The live cell numbers were counted daily to 7 days. […] (B) Cell proliferation evaluated with the BrdU incorporation assay. Cells transfected with WT BTK and T316A were treated with 100 nM ibr for 3 days and were labeled with 10 μM BrdU for 2 hrs.
(§2) BTK WT or mutant-transfected TMD8 cells were treated with ibr for 72 hrs at indicated doses. Cells were then exposed to 10 μM BrdU for 2 hrs followed by cell cycle analysis according to the manufacturer's instructions using BrdU Flow Kit (BD Pharmingen, San Diego, CA, USA). Flow cytometric analysis was performed using 4-laser BD LSR II using FACSDiva and FlowJo software.
(§3) The functional impact of T316A mutation was assessed at the cellular levels. BTK wild type (WT) and T316A as well as C481S expression vectors were constructed and transfected into an ibr-sensitive lymphoma cell line (TMD8) and cell growth was followed.

[2] = test system: TMD8 cells transfected with WT BTK; conditions: 100 nM ibr 3 days, 10 μM BrdU 2 hrs
Procedure: as §1, §2, §3

SMILES: C=CC(=O)N1CCC[C@@H](n2nc(-c3ccc(Oc4ccccc4)cc3)c3c(N)ncnc32)C1 [Ibrutinib, ibrutinib]
- BrdU incorporation (cellular proliferation) under ibr [1]: 31.8%
- BrdU incorporation (cellular proliferation) under ibr [2]: 9.71%

— patent US12435379B2 (The University of Chicago, priority 2016, dated 2025)
